Laboratory results from patent US12600725B2 (Memorial Sloan-Kettering Cancer Center, priority 2013, dated 2026).
Where “and” joins values, the source holds several entries; their conditions need not be identical. Identical values can stand only once. Entries after “also recorded” stand apart in the source; their conditions may differ. Like-named read-outs stand apart in the source and are kept apart here.

What was measured:
Grp94 [1] = target: T1, Grp94 (Canis lupus familiaris, UniProt P41148); details: read-out: Grp94; FP competition, 6 nM Cy3B-GM, 10 nM protein, 4° C. for 24 h
T1 sequence (P41148 with tags, fused parts or gaps DELINS287-327GGGG): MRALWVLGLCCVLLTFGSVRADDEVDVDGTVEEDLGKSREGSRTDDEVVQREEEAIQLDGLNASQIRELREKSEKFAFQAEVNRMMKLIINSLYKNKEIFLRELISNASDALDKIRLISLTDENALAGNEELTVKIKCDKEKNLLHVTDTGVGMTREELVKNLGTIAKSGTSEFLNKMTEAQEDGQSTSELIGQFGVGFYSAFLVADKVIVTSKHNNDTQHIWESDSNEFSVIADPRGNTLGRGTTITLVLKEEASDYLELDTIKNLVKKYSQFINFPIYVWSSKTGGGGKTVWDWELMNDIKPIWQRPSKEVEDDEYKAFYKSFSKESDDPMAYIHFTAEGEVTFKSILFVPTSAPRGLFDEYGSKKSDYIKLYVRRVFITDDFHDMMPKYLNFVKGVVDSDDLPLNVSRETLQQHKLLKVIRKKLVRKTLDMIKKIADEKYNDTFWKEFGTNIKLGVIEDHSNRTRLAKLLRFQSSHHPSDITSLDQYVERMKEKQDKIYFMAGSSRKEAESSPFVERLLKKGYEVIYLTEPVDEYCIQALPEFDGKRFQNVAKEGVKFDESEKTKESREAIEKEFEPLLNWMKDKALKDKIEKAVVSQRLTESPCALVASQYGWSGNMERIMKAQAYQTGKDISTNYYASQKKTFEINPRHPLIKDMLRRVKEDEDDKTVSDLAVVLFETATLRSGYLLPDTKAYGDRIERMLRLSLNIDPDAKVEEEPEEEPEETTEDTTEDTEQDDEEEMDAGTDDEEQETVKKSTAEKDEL

Hsp90α [2] = target: T2, Hsp90α (Homo sapiens, UniProt P07900); details: read-out: Hsp90α; FP competition, 6 nM Cy3B-GM, 10 nM protein, 4° C. for 24 h
Hsp90β = Hsp90β (Homo sapiens, UniProt P08238)
Sequence of Hsp90β (P08238 whole entry): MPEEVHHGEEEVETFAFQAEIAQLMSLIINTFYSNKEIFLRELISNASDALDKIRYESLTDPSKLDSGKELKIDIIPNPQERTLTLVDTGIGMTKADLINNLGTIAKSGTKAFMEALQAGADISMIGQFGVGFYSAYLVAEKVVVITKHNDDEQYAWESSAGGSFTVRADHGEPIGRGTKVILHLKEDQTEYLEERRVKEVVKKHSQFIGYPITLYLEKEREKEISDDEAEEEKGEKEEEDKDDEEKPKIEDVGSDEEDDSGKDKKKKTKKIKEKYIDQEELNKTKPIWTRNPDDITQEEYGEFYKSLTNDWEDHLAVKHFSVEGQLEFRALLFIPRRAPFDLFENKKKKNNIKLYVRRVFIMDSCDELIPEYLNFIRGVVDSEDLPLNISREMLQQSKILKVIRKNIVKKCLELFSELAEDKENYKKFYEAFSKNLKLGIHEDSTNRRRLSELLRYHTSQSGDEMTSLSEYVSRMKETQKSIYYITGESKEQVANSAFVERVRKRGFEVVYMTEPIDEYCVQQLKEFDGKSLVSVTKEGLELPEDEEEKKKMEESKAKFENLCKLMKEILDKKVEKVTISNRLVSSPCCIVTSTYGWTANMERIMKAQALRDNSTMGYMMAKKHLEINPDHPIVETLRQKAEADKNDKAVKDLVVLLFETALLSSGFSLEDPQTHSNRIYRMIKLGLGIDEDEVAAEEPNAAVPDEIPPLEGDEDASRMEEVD

PANC-1 cells = test: Apoptosis assessment (Annexin V / 7AAD); type: cell-based
Description: Annexin V Apoptosis with 7-AAD has been specifically designed for the identification of apoptotic and necrotic cells. Annexin V (or Annexin A5) is a member of the annexin family of intracellular proteins that binds to phosphatidylserine (PS) in a calcium-dependent manner. PS is normally only found on the intracellular leaflet of the plasma membrane in healthy cells, but during early apoptosis, membrane asymmetry is lost and PS translocates to the external leaflet. Fluorochrome-labeled Annexin V can then be used to specifically target and identify apoptotic cells. Annexin V binding alone cannot differentiate between apoptotic and necrotic cells. To help distinguish between the necrotic and apoptotic cells 7-amino-actinomycin D (7-AAD) is used. Early apoptotic cells will exclude 7-AAD, while late stage apoptotic cells will stain positively, due to the passage of these dyes into the nucleus where they bind to DNA. 7-AAD (7-amino-actinomycin D) has a high DNA binding constant and is efficiently excluded by intact cells. It is useful for DNA analysis and dead cell discrimination during flow cytometric analysis. When excited by 488 laser light, 7-AAD fluorescence is detected in the far red range of the spectrum (650 nm long-pass filter).
Cell cycle and apoptosis assessment. Cell cycle and apoptosis were assessed by flow cytometry after single staining with propidium iodide (PI, BD Pharmingen) or double staining with AnnexinV-FITC (BD Pharmingen) and 7AAD (BD Pharmingen), respectively. Specifically, for cell cycle analysis, cells were washed twice with cold PBS and fixed in 70% ethanol overnight at 4° C. Fixed cells were collected at 1800 rpm for 10 min and stained with PBS containing PI and DNase-free RNase A (Sigma-Aldrich) for 1 h at room temperature in the dark. DNA content was measured by BD LSRII flow cytometer and cell further analyzed using program of cell cycle analysis in FloJo (Ashland, OR). The chicken erythrocyte nuclei singlets (CEN, Biosure) were used as the reference. For apoptosis assessment, live cells were collected, washed twice with cold PBS, resuspended in Binding Buffer and stained with AnnexinV-FITC and 7AAD for 15 min at room temperature in the dark. Signals from FL1 and FL3 channels were collected by MACSQuant analyzer and further analyzed using FloJo. Early apoptosis was defined as AnnexinV+/7AAD−, and late apoptosis was observed as AnnexinV+/7AAD+.

[3] = system: Hsp70 induction and AKT degradation (cytosolic Hsp90 hallmarks) in C2C12 cells; test: Western blot of Hsp70 induction and AKT degradation in C2C12 cells; type: cell-based, mouse; details: 24 hrs
Experimental: Cell fractionation and immunoblotting. Cells were either treated with DMSO (vehicle) or indicated compounds for 24 hr and lysed in RIPA buffer (50 mM Tris-HCl, pH 7.4, 150 mM NaCl, 0.5% sodium deoxycholate and 0.5% NP40) supplemented with cocktail protease inhibitors (Roche) to produce whole cell lysates. Lysates for cytosol and membrane fractions were harvested using ProteoExtract Subcellular Proteome Extraction Kit (Calbiochem) following the manufacturer's instructions. Protein concentrations were determined using BCA kit (Pierce) according to the manufacturer's instructions. […] After washing off the excess antibodies, the membranes were incubated with the corresponding horseradish peroxidase (HRP) conjugated secondary antibody. Blots were visualized by autoradiography using the Enhanced Chemiluminescence Detection System (GE Healthcare) according to manufacturer's instructions. For all gels 3-actin was used as a protein loading control.

[4] = system: Toll-like receptor 9 (TLR9) trafficking in HEK293 cells transfected with HA-TLR9; test: TLR9-trafficking assay; type: cell-based, human; details: 24 h treatment
Experimental: TLR^9-trafficking assay (Yang, Y. et al. Heat shock protein gp96 is a master chaperone for toll-like receptors and is important in the innate function of macrophages. Immunity 26, 215-26 (2007)). HEK 293T cells were transfected with pUNO-hTLR9-HA (Invivogen) using X-tremgene HP (Roche) according to the manufacturer's instructions. At 24 hrs post-transfection, cells were split onto cell culture chamber slides (Lab-Tek). Cells were then treated for 24 hrs with indicated compound at varying concentrations. After treatment, cells were fixed for 20 min in 4% paraformaldehyde in PBS, permeabilized with 0.1% Triton-X 100 in PBS for 10 min, blocked with 3% BSA in PBS for 30 min, followed by staining for 1 hr with an anti-HA antibody (Abcam, ab9110) or a normal rabbit IgG. Cells were washed with PBS, stained with an anti-rabbit-Cy3 antibody (Invitrogen) and finally mounted in the dark at 4° C. with Prolong Gold Antifade reagent (with DAPI). Cells were visualized under a confocal microscope (Leica Upright Confocal SP5). Fluorescence intensity was quantified using MetaMorph Microscopy Automation and Image Analysis Software (Molecular Devices Inc.) and normalized to the cell number.

[5] = system: Hsp70 induction in HEK293 cells; test: Hsp70 induction in HA-TLR9 transfected HEK293 cells; type: cell-based, human; details: 24 h
Experimental: Cell fractionation and immunoblotting. Cells were either treated with DMSO (vehicle) or indicated compounds for 24 hr and lysed in RIPA buffer (50 mM Tris-HCl, pH 7.4, 150 mM NaCl, 0.5% sodium deoxycholate and 0.5% NP40) supplemented with cocktail protease inhibitors (Roche) to produce whole cell lysates. Lysates for cytosol and membrane fractions were harvested using ProteoExtract Subcellular Proteome Extraction Kit (Calbiochem) following the manufacturer's instructions. Protein concentrations were determined using BCA kit (Pierce) according to the manufacturer's instructions. The protein lysates ([…]) were electrophoretically resolved by SDS-PAGE, transferred onto nitrocellulose membranes and probed with the indicated primary antibodies against: HER^2 (Zymed, 28004), Hsp70 (Stressgen, SPA-810), Grp94 (Stressgen, SPA-850), Hsp90α (Abcam, Ab2928), Hsp90β (StressMarq, SMC-107B), Grp78 (Cell Signaling, 3183), Raf-1 (Santa Cruz, sc-133), phospho-Raf-1 (Cell Signaling, 9421), MEK1/2 (Cell Signaling, 8727), phospho-MEK1/2 (Cell Signaling, 9154), ERK1/2 (Cell Signaling, 4695), phospho-ERK1/2 (Cell Signaling, 4370), AKT (Cell Signaling, 9272), GM130 (Cell Signaling, 2296), Flotillin 2 (Cell Signaling, 3436), Histone H4 (Cell Signaling, 2592), Histone H1 (Santa Cruz, sc-8030), Caspase 3 (Cell Signaling, 9665), cleaved PARP (Promega, G7341), a-tubulin (Sigma, T5168) and 3-actin (Sigma, A1978). After washing off the excess antibodies, the membranes were incubated with the corresponding horseradish peroxidase (HRP) conjugated secondary antibody. Blots were visualized by autoradiography using the Enhanced Chemiluminescence Detection System (GE Healthcare) according to manufacturer's instructions. […]
TLR^9-trafficking assay (Yang, Y. et al. Heat shock protein gp96 is a master chaperone for toll-like receptors and is important in the innate function of macrophages. Immunity 26, 215-26 (2007)). […] Fluorescence intensity was quantified using MetaMorph Microscopy Automation and Image Analysis Software (Molecular Devices Inc.) and normalized to the cell number.

Trap-1 [6] = target: T3, Trap-1 (Homo sapiens, UniProt Q12931); details: for decrease in binding efficacy for Trap-1: relative to Hsp90; for loss of affinity for Trap-1: Hsp90 vs Trap-1
T3 sequence (Q12931 60-704): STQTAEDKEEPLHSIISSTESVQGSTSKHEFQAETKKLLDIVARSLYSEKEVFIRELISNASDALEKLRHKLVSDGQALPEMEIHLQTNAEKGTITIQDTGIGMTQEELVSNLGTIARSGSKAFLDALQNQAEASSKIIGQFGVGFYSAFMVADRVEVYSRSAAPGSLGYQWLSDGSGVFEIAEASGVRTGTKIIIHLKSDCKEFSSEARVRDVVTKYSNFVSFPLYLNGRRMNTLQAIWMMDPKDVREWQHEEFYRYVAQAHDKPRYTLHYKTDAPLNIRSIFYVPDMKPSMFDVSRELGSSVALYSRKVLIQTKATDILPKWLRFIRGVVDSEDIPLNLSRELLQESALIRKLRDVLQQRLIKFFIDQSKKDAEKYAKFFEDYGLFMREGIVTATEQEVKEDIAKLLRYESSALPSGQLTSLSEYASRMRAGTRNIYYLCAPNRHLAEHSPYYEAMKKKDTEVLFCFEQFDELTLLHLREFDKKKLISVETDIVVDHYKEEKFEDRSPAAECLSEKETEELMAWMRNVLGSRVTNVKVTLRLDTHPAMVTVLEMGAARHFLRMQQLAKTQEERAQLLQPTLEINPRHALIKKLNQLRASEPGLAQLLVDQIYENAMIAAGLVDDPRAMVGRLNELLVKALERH

[7] = system: HER2 at the plasma membrane of SKBr3 cells; test: Immunofluorescence of HER2 architecture at the plasma membrane; type: cell-based
Experimental: We next investigated the biological significance of the unique association of HER^2 with Grp94 at the plasma membrane of SKBr3 cells. Because the Grp94 inhibitors described here target the ATP-binding pocket of Grp94, they affect Grp94 chaperone activity. Therefore we hypothesized that Grp94 may act on HER^2 at the plasma membrane to stabilize the protein and to regulate its function.
Immunofluorescence. Cells were seeded and grown onto culture slides (BD Falcon) for 24 hrs. After washing with cold PBS, cells were fixed by treating at 4° C. for 20 min with 4% paraformaldehyde in PBS, permeabilized with 0.1% Triton X-100 in PBS containing 10% FBS for 10 min, and blocked with 2% BSA for 1 hr. After washing for four times with PBS, primary antibodies were added onto the chambers and cell were incubated overnight at 4° C., washed again with PBS followed by incubation with the secondary antibody for 1 hr at room temperature. Cell were washed and then mounted and observed under microscope (Leica Upright Confocal SP5). The primary antibodies used in the assay are against: HER^2 (Zymed, 28004), Grp94 (Stressgen, SPA-850), Hsp70 (Stressgen, SPA-810), LAMP1-FITC (Abcam, ab25406), EEA1 (Abcam, ab70521), 58K Golgi-FITC (Abcam, ab27043) and Calnexin (BD, 610523).

Trap-1 [8] = target: T3, Trap-1; details: read-out: TRAP-1
Hsp90α [9] = target: T2, Hsp90α; test: biochemical; details: FP competition, 6 nM Cy3B-GM, 10 nM protein, 4° C. for 24 h
Grp94 [10] = details: Hsp90 vs Grp94
Grp94 [11] = target: T1, Grp94; details: read-out: Grp94 IC50; 43a as FP probe

Question: `CC(C)NCCCn1c(Sc2ccc(Cl)cc2Cl)nc2c(N)ncnc21` [WS-12, 8-((2,4-Dichlorophenyl)thio)-9-(3-(isopropylamino)propyl)-9H-purin-6-amine] was tested. Which IC50 (Grp94 [1]) did it give?
Answer: 0.41 µM and 0.407 µM

Question: And the IC50 (Hsp90α [2])?
Answer: 20.3 ± 1.2 µM

Question: `CC(C)NCCCn1c(Sc2cc(Cl)cc(Cl)c2)nc2c(N)ncnc21` [WS-13, 8-((3,5-Dichlorophenyl)thio)-9-(3-(isopropylamino)propyl)-9H-purin-6-amine] was tested. Which IC50 (Grp94 [1]) did it give?
Answer: 0.22 ± 0.08 µM

Question: What about the IC50 (Hsp90β; read-out: Hsp90β, FP competition, 6 nM Cy3B-GM, 10 nM protein, 4° C. for 24 h) of the same compound?
Answer: 41.8 ± 1.3 µM

Question: What about the IC50 (Hsp90α [2]) of the same compound?
Answer: 27.3 ± 3.5 µM

Question: How did the induction of apoptosis (PANC-1 cells) turn out when `CC(C)NCCCn1c(Sc2cc3c(cc2I)OCO3)nc2c(N)ncnc21` [PU-H71] was run?
Answer: very little effect

Question: And the AKT degradation [3]?
Answer: degrade AKT

Question: And the Hsp70 induction [3]?
Answer: induce Hsp70

Question: And the TLR9 trafficking [4]?
Answer: inhibit TLR^9 trafficking

Question: And the Hsp70 induction [5]?
Answer: induce Hsp70

Question: What about the “decrease in binding efficacy for Trap-1” value (Trap-1 [6]) of the same compound?
Answer: 5 fold

Question: Which “effect on HER2 architecture at the plasma membrane” value [7] does the source give for `CS(=O)(=O)CCNCc1ccc(-c2ccc3ncnc(Nc4ccc(OCc5cccc(F)c5)c(Cl)c4)c3c2)o1` [lapatinib] here?
Answer: does not disrupt the HER^2 architecture at the plasma membrane; also recorded: No such effect was observed

Question: What does the source list for `C#CCCCn1c(Sc2cc(C)cc(C)c2)nc2c(N)ncnc21` [PU-H4]?
Answer: IC50 (Grp94 [1]): 11.5 ± 0.92 µM; IC50 (Trap-1 [8]): 158 ± 9.7 µM; IC50 (Hsp90β): > 300 µM; IC50 (Hsp90α [9]): > 300 µM

Question: Which results are given for `C#CCCCn1c(Sc2cc(C)ccc2C)nc2c(N)ncnc21` [PU-H27]?
Answer: IC50 (Trap-1 [8]): 204 ± 11 µM; IC50 (Hsp90β): > 300 µM; IC50 (Hsp90α [9]): > 300 µM

Question: `CC1(C)CC(=O)c2c(C(F)(F)F)nn(-c3ccc(C(N)=O)c(N[C@H]4CC[C@H](O)CC4)c3)c2C1` [SNX-2112] was tested. Which “loss of affinity for Grp94” value (Grp94 [10]) did it give?
Answer: approximately 10 fold

Question: Which “decrease in binding efficacy for Trap-1” value (Trap-1 [6]) does the source give for `COc1c(C)cnc(Cn2cnc3c(Cl)nc(N)nc32)c1C` [BIIB021] here?
Answer: 5 fold

Question: And the “loss of affinity for Grp94” value (Grp94 [10])?
Answer: approximately 10 fold

Question: What does the source list for `CN(C)c1cc2c(cc1Sc1nc3c(N)nccc3n1CCNCC(C)(C)C)OCO2` [CUDC-305/Debio092]?
Answer: loss of affinity for Trap-1 (Trap-1 [6]): ~2 log; loss of affinity for Grp94 (Grp94 [10]): approximately 10 fold

Question: For `C=CCNC1=C2C[C@@H](C)C[C@H](OC)[C@H](O)[C@@H](C)/C=C(\C)[C@H](OC(N)=O)[C@@H](OC)/C=C\C=C(/C)C(=O)NC(=CC1=O)C2=O` [Compound 17-AAG], which “loss of affinity for Trap-1” value (Trap-1 [6]) is on record?
Answer: ~2 log

Question: And the IC50 (Trap-1 [6]; read-out: Trap-1 IC50, 43a as FP probe)?
Answer: 1.5 µM

Question: What about the IC50 (Trap-1 [6]; read-out: binding affinity (FP competition), probe 115a) of the same compound?
Answer: 1.5 µM

Question: What about the IC50 (Grp94 [11]) of the same compound?
Answer: 0.031 µM

Question: What does the source list for `C#CCCCn1c(Sc2cc(Cl)ccc2Cl)nc2c(N)ncnc21` [PU-H42]?
Answer: IC50 (Grp94 [1]): 0.53 ± 0.1 µM; IC50 (Trap-1 [8]): 5.1 ± 4.2 µM; IC50 (Hsp90β): > 100 µM; IC50 (Hsp90α [2]): 60.4 ± 1.6 µM

Question: `C#CCCCn1c(Sc2cc(Cl)c(Cl)cc2Cl)nc2c(N)ncnc21` [PU-H51] was tested. Which IC50 (Grp94 [1]) did it give?
Answer: 0.17 ± 0.11 µM

Question: What about the IC50 (Trap-1 [8]) of the same compound?
Answer: 78.4 ± 8.9 µM

Question: And the IC50 (Hsp90β)?
Answer: > 200 µM

Question: And the IC50 (Hsp90α [9])?
Answer: > 200 µM
